# Assay results from patent US10716830B2, “ERBB4 activator screening assay” (Children's Hospital Los Angeles, priority 2011, dated 2020).
# Experiments:
# Type in all cases: cell-based, mouse
# Akt = Akt phosphorylation in whole cell lysates by western blot; settings: YAMC-B4 cells; NRG4 100 ng/ml, 10 min
# Text: (§1) Cell lysates were extracted in modified RIPA buffer as previously described (Frey, M. R., Dise, R. S., Edelblum, K. L., and Polk, D. B. (2006) Embo J 25, 5683-5692), cleared by centrifugation, and boiled in Laemmli sample buffer. Samples were separated on SDS-polyacrylamide gels (6-10% as appropriate), blotted on PVDF membranes, and subjected to quantitative immunoblot using the Li-Cor Odyssey infrared detection system. Equal loading was monitored by immunoblots for actin and at least one additional protein.
# (§2) To identify signaling pathways which could be involved in NRG4-stimulated cell survival, we exposed YAMC-B4 cells to NRG4 or EGF and prepared whole cell lysates for western blot analysis. […] Furthermore, COX-2 expression, which is induced by either HRG-1β or EGF after 6 h exposure, and is required for cell survival induced by ErbB4-EGFR dimers (Frey, M. R., Hilliard, V. C., Mullane, M. T., and Polk, D. B. (2010) Laboratory Investigation 90, 1415-1424), was not induced by NRG4. Thus, NRG4 promotes cell survival through pathways at least partly distinct from those activated by other ligands.
# YAMC-B4 cells [1] = assay: Cell migration/restitution (modified scratch) assay; settings: 8 h
# Procedure: Cells grown on fibronectin-coated plates were subjected to multiple circular wounds with a rotating silicone probe as previously described (Corredor, J., Yan, F., Shen, C. C., Tong, W., John, S. K., Wilson, G., Whitehead, R., and Polk, D. B. (2003) American journal of physiology. Cell physiology 284, C953-961). Cultures were photographed immediately and 8 h after wounding; % closure was determined by measuring wounds in Image.
# To test the potential effect of NRG4-ErbB4 signaling on cell motility, we used a modified scratch assay for restitution/migration (Corredor, J., Yan, F., Shen, C. C., Tong, W., John, S. K., Wilson, G., Whitehead, R., and Polk, D. B. (2003) American journal of physiology. Cell physiology 284, C953-961). Over an 8 h period, NRG4 had no effect on the rate at which YAMC-B4 cells moved into the denuded area of a culture plate (FIG. 4C), while in contrast EGF caused a 54% increase in migration over control.
# YAMC-B4 cells [2] = assay: EdU proliferation assay; settings: 24 h stimulation
# Procedure: Proliferative index in fixed colon specimens was assessed by immunohistochemical stain for Ki-67. In vitro, cells were exposed to vehicle or growth factors for 24 h, then labeled with 5-ethynyl-2-deoxyuridine (EdU) for 2 h and fixed. Nuclei were marked with DAPI, and incorporated EdU was detected using a Click-iT EdU kit (Invitrogen).
# Most ErbB ligands stimulate multiple cellular processes, including proliferation and migration, in colon epithelial cells (Frey, M. R., Golovin, A., and Polk, D. B. (2004) J Biol Chem 279, 44513-44521). To determine if NRG4 is similarly broad in its cellular effects, we subjected YAMC-B4 cells to proliferation assays in the presence of NRG4. […] In vivo, the number of Ki67-positive nuclei per crypt in PBS vs. NRG4-injected mice was not altered 24 h post-injection (FIG. 4B).
# COX-2 = COX-2 expression in YAMC-B4 cells; settings: 6 h exposure
# Procedure: as §2
# ERK MAPK = ERK MAPK phosphorylation in whole cell lysates by western blot; settings: YAMC-B4 cells; NRG4 100 ng/ml, 10 min
# Text: as §1, §2
# [3] = system: EGFR, ErbB2, ErbB3, and ErbB4; assay: ErbB receptor phosphorylation by western blot with phospho-specific antibodies; settings: YAMC-B4 cells (human ErbB4 construct); 10 min; HRG-1β 100 ng/ml, NRG4, EGF 10 ng/ml
# Text: Conditionally immortalized, non-transformed young adult mouse colon (YAMC) epithelial cells were provided by Dr. Robert Whitehead (Whitehead, R. H., VanEeden, P. E., Noble, M. D., Ataliotis, P., and Jat, P. S. (1993) Proc Natl Acad Sci USA 90, 587-591). These cells express low levels of endogenous ErbB4; YAMC-B4 cells expressing a human ErbB4 construct were generated as previously described (Frey, M. R., Edelblum, K. L., Mullane, M. T., Liang, D., and Polk, D. B. (2009) Gastroenterology 136, 217-226). […]
# as §1
# Phosphorylation of EGFR, ErbB2, ErbB3, and ErbB4 was determined by western blot analysis of cell lysates using phospho-specific antibodies. […]
substance,measurement,setting,value
"epidermal growth factor (NSYPGCPSSYDGYCLNGGVCMHIESLDSYTCNCVIGYSGDRCQTRDLRWWELR; Epidermal growth factor; UniProt P01132 977-1029, looked up) [EGF, Recombinant murine EGF from Peprotech; positive control for cell stimulation, reference compound]",phosphorylation of Akt,Akt,activated both cascades
same,increase in migration over control,YAMC-B4 cells [1],54%
same,stimulation of proliferation over control (EdU),YAMC-B4 cells [2],31.5%
same,COX-2 expression,COX-2,induced
same,phosphorylation of ERK MAPK,ERK MAPK,activated both cascades
same,"phosphorylation of EGFR, ErbB2, ErbB3, and ErbB4",[3],stimulated phosphorylation of multiple ErbBs
